EC50 data for 35 compounds are collected here from PubChem BioAssay AID489040 (Sanford-Burnham Center for Chemical Genomics, 2010).

Activity calls are given as the source filed them.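 How the source made its calls: active means mean half-maximal activating concentration from the dose-response fit at or below a set limit; inactive means the rest.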

The assay addresses CHO-XBP1 luciferase reporter, IRE1-XBP1 UPR activation. In words: activators of IRE1-XBP1 UPR arm, dose response, counter-screen for apoptotic UPR arm activators, CHO-XBP1 cells, luminescence (AID 489040).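 Further: reporter read after six hours of compound exposure.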 On the technique in general: A counterscreen serves to expose hits that act by an unwanted route or on another target.
On to `CC(=O)/C(=C/c1ccccc1)C(=O)Nc1ccccc1C`, for which the EC50 (as a rule, the concentration at which the effect is half-maximal) was > 80 µM (inactive).
Take `O=C(/C=C/Sc1ccccc1)c1ccc(Cl)cc1`: the EC50 is > 80 µM (inactive).
The result for `COc1cc(C(=O)Sc2ccc(Cl)cc2)cc(OC)c1OC` reads > 80 µM (inactive); that for `CC(C)N1C/C(=C/c2ccsc2)C(=O)/C(=C/c2ccsc2)C1`, > 80 µM (inactive); that for `Cc1nc(NC(=O)/C=C/c2ccccc2)n[nH]1`, > 80 µM (inactive).
As to `COc1cc([C@H]2c3[nH]c4ccccc4c3C[C@H]3C(=O)N4[C@@H](c5cc(OC)c(OC)c(OC)c5)c5[nH]c6ccccc6c5C[C@H]4C(=O)N23)cc(OC)c1OC`, the concentration giving a half-maximal response (EC50) was 14.1 µM.
As for `COc1cc(SC#N)ccc1N=Cc1c(C)[nH]n(-c2ccc(Cl)cc2)c1=O`, the EC50 was 15.9 µM.
As for `FC(F)(F)c1nnc(-c2ccccc2)nc1Sc1ccccc1`, the EC50 was > 80 µM (inactive).
For `CCSC1(SCC)N=C(N)C2(C#N)C(c3ccc(F)cc3)C12C#N` (stereo not given), the EC50 is > 80 µM (inactive).
On to `CC1=C(CC/C(C)=N/NC(N)=S)C(C)(C)CCC1`, for which the EC50 result is “inactive”.
The result for `COc1cc(/C=C(/C#N)c2nc3ccccc3[nH]2)ccc1OCC(=O)Nc1ccccc1C` reads > 80 µM (inactive).
The result for `O=C(c1cccs1)N(C(=O)c1cccs1)c1ccc(Br)cn1` reads 17.9 µM; that for `Nc1cccc(-c2nc3cc(S(=O)(=O)c4ccc5oc(-c6cccc(N)c6)nc5c4)ccc3o2)c1`, > 80 µM (inactive); that for `CCOC(=O)c1cnc(Nc2nc3ccccc3o2)nc1CSC(=S)N1CCCCC1`, 9.07 µM.
The result for `Cc1ccc(C(C[N+](=O)[O-])n2nc(C)cc2C)cc1` (stereo not given) reads > 80 µM (inactive).
Take `COc1ccccc1N=c1oc2c(OC)cccc2cc1C(=O)NCc1ccco1`: the EC50 result was “inactive”.
With `CCOC(=O)/C(=C\c1ccccc1)C(=O)c1cc(C(C)=O)c(Nc2ccccc2)s1`, the EC50 is > 80 µM (inactive).
For the compound `c1ccc(CSC2=NNC(c3ccccn3)S2)cc1` (stereo not given), the EC50 was > 80 µM (inactive).
As for `COc1ccc2[nH]cc(C(=O)CCl)c2c1`, the EC50 was > 80 µM (inactive).
Take `Cc1cccc(/C=C/C(=O)c2ccc([N+](=O)[O-])o2)c1`: the EC50 is > 80 µM (inactive).
With `Cc1cc(NC(=O)c2cc(-c3ccccn3)nc3ccc(Br)cc23)no1`, the EC50 was > 80 µM (inactive).
As to `O=C(N/N=C/c1ccccn1)c1cc(-c2ccc(Br)cc2)nc2ccccc12`, the EC50 was > 80 µM (inactive).
As for `Cc1cc(SCC(=O)N/N=C/c2ccc(O)c(O)c2)nc2ccccc12`, the entry is “inactive”; as for `COC(=O)c1ccc(COc2ccccc2/C=C(\C#N)C(=O)Nc2c(C)cccc2C)cc1`, “inactive”; as for `O=C(Nc1ccc2oc(-c3ccc4ccccc4c3)nc2c1)c1ccc2c(c1)OCCO2`, “inactive”.
For `Oc1ccc(-c2csc(Nc3cccc4ccccc34)n2)cc1O`, the EC50 was > 80 µM (inactive).
For the compound `Oc1ccc2ccccc2c1N=Nc1ccccn1`, the EC50 is > 80 µM (inactive).
As to `Cc1cccc(-n2ncc(Cl)c(Cl)c2=O)c1`, the EC50 was > 80 µM (inactive).
As for `CCCOc1ccc(N2C(=O)CC(N(O)c3ccccc3)C2=O)cc1` (stereo not given), the figure is > 80 µM (inactive); as for `COc1cc(/C=C2\C(=O)ON=C2c2ccc(Cl)cc2)ccc1O`, > 80 µM (inactive); as for `Cc1ccc(S(=O)(=O)Nc2cccc3cccnc23)cc1`, > 80 µM (inactive).
For the compound `CC1=CC(=O)C(C(C)C)=C/C1=N/OC(=O)c1cccc([N+](=O)[O-])c1`, the EC50 is > 80 µM (inactive).
In the case of `Oc1ccc(/C=N/N2CCN(C3c4ccccc4-c4ccccc43)CC2)cc1O`, the concentration for a half-maximal effect (EC50) was 18.8 µM.
As to `COc1ccccc1N1CCN(/N=C/c2ccc(O)c(O)c2)CC1`, the EC50 was > 80 µM (inactive).
The result for `CC1=CC(C)(C)Nc2ccc(OC(=O)CN3C(=O)CCC3=O)cc21` reads > 80 µM (inactive).
